Reference: patent publication US9315532B2, “Fatty acid carbohydrate hybrid molecules as therapeutic agents and methods thereof” (The Johns Hopkins University, priority 2005, dated 2016)
Entries after “also recorded” stand apart in the source; their conditions may differ.

Key:
Assay type in all cases: cell-based, human
AD293 (HEK) cells = assay: Morphological changes / toxicity in AD293 (HEK) cells
Description: The studies on morphological changes induced by sodium butyrate (5) and But4ManNAc (1) were performed following a reported procedure (45). Briefly, HeLa cells (200,000 cells per well in a 6-well plate) were plated and allowed to form monolayers. After 24 h, the supernatant was aspirated, fresh medium (4.0 mL) was added and treated with either ethanol (20 μL (0.5%), control), 5 (5.0 mM), or 1 (250 μM). For the AD 293 (HEK) cells 2.0×10^6 cells in 10 mL of medium (100 mm tissue culture dishes) were plated and treated, immediately after plating, with either ethanol (50 μL, control), 5 (5.0 mM), or 1 (250 μM). Images were acquired at various time intervals under bright field using a Nikon Eclipse TE200 inverted microscope equipped with a DXM 1200 digital camera.

[1] = test system: sialic acid biosynthesis in Jurkat cells; assay: Assay for total sialic acid production (periodate-resorcinol); settings: three days
Description: Jurkat cells (5.0×10^6 cells in 10 mL medium) were incubated with 1-5 at various concentrations. […] The cell lysates were analyzed by using an adapted version of the periodate-resorcinol assay (36, 59) with the periodic acid oxidation step performed on ice to allow quantification of total (i.e., free monosaccharide plus glycoconjugate-bound) sialic acid. For each assay, a standard curve was obtained using N-acetylneuraminic acid (Pfanstiehl, Waukegan, Ill.) for calibration.

caspase-3 activity = assay: Caspase-3 activity assay in Jurkat cells; settings: for increase of caspase-3 activity: 48 h
Source text: Such results are consistent with those expected by the compounds herein.

p21WAF1 = assay: Endogenous p21WAF1 assay (anti-p21WAF1 antibody, flow cytometry) in Jurkat cells
Description: Endogenous expression of p21^WAF1 was detected following a reported procedure (58) with minor modifications. Jurkat cells (5.0×10^6 cells in 10 mL medium) were incubated with either ethanol or 1 (250 μM or 5 (2.5 mM). On a daily basis, aliquots of cells (˜1.0×10^6 per sample) were taken, washed with PBS (2×1.0 mL), fixed with Reagent A (Fix and Perm Kit, Caltag Laboratories, CA, Cat. No. GAS-003) for 10 min at room temperature, washed with washing buffer (PBS containing 5.0% FBS, 0.1% NaN3), re-suspended in 95% v/v methanol and kept on ice. After 30 min, cells were again washed with washing buffer and incubated with FITC-conjugated anti-p21^WAF1 antibody (Calbiochem, San Diego, Calif., Cat. No. OP64F) at 2.0 μg/mL in Reagent B (100 μL) (Fix and Perm Kit, Caltag Laboratories) for 1.0 h at room temperature in the dark. Finally, cells were re-suspended in washing buffer (500 μL) and analyzed by flow cytometry. Three replicate samples were taken for each condition and 10,000 events were counted for each sample.

With `CCCC(=O)OC[C@H]1OC(OC(=O)CCC)[C@@H](NC(C)=O)[C@@H](OC(=O)CCC)[C@@H]1OC(=O)CCC` (stereo partly drawn) [compound 1, 2-Acetylamino-2-deoxy-1,3,4,6-tetra-O-butanoyl-α,β-D-mannopyranoside] as the molecule, how does the “apoptosis / toxicity in AD293 cells” value (AD293 (HEK) cells; 2 days, 1 at 250 μM, 5 at 5.0 mM) read?
The value was “considerable degree of apoptosis; also recorded: toxicity”.

What about the “fold lower concentration for cellular responses than sodium n-butyrate” value (AD293 (HEK) cells; AD293 cells) of the same molecule?
The value was about 20 ×.

What about the total sialic acid [1] of the same molecule?
The total sialic acid was “large increase in total sialic acid”.

And the “apoptosis by caspase-3 activity assay” value (caspase-3 activity)?
Its value is “dose dependent apoptosis”.

What about the “increase of caspase-3 activity” value (caspase-3 activity; 25 μM) of the same molecule?
Its value is about 4 fold.

What about the “increase of caspase-3 activity” value (caspase-3 activity; 50 μM) of the same molecule?
The value was about 8 fold.

And the “increase of caspase-3 activity” value (caspase-3 activity; 100 μM)?
The value was about 14 fold.

What about the “fold lower concentration for endogenous p21WAF1/Cip1 gene activation than sodium n-butyrate (5)” value (p21WAF1) of the same molecule?
The value was about 10 ×.

And the “endogenous p21WAF1 levels” value (p21WAF1; one week, 1 at 250 μM, 5 at 2.5 mM)?
The value was “increased p21^WAF1 levels”.
